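Cultured in 96-well plates, cells were exposed to test compound for 48 hours across five concentrations. At the GI50, growth is halved.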 Active and inactive are the calls of the source. No stated cut-off is given here; in the data, active = GI50 up to about 1.1 µM and inactive = higher.
Columns and labels:
Experiment in all cases: DTP human tumour cell line panel, 48 h
HL-60 = test system: HL-60
A549 = test system: A549
OVCAR-4 = test system: OVCAR-4
RXF 393 = test system: RXF 393
OVCAR-3 = test system: OVCAR-3
SNB-75 = test system: SNB-75
TK-10 = test system: TK-10
786-0 = test system: 786-0
OVCAR-8 = test system: OVCAR-8
SK-MEL-28 = test system: SK-MEL-28
LOX IMVI = test system: LOX IMVI
HT-29 = test system: HT-29
UACC-62 = test system: UACC-62
HOP-92 = test system: HOP-92
SNB-19 = test system: SNB-19
UACC-257 = test system: UACC-257
MDA-N = test system: MDA-N
MDA-MB-231 = test system: MDA-MB-231
CAKI-1 = test system: CAKI-1
U-251 = test system: U-251
IGROV-1 = test system: IGROV-1
SN12C = test system: SN12C
UO-31 = test system: UO-31
SK-MEL-5 = test system: SK-MEL-5
NCI-H23 = test system: NCI-H23
M14 = test system: M14
MCF7 = test system: MCF7
COLO 205 = test system: COLO 205
MOLT-4 = test system: MOLT-4
HCC 2998 = test system: HCC 2998
HCT-15 = test system: HCT-15
HOP-62 = test system: HOP-62
PC-3 = test system: PC-3
SF-268 = test system: SF-268
EKVX = test system: EKVX
CCRF-CEM = test system: CCRF-CEM
NCI-H522 = test system: NCI-H522
ACHN = test system: ACHN
NCI-H460 = test system: NCI-H460
SW-620 = test system: SW-620
T47D = test system: T47D
SF-295 = test system: SF-295
HCT-116 = test system: HCT-116
Hs-578T = test system: Hs-578T
SR = test system: SR
OVCAR-5 = test system: OVCAR-5
SK-MEL-2 = test system: SK-MEL-2
NCI-H226 = test system: NCI-H226
NCI/ADR-RES = test system: NCI/ADR-RES
BT-549 = test system: BT-549
DU-145 = test system: DU-145
MDA-MB-435 = test system: MDA-MB-435
K562 = test system: K562
Malme-3M = test system: Malme-3M
KM12 = test system: KM12
SF-539 = test system: SF-539
A498 = test system: A498
RPMI-8226 = test system: RPMI-8226
SK-OV-3 = test system: SK-OV-3

CCOC1OC(C)(C=C(C#N)C#N)CCC1C (centres undefined)
GI50 (HL-60): 26.9 µM (inactive) | GI50 (A549): 45.5 µM (inactive) | GI50 (OVCAR-4): 49.3 µM (inactive) | GI50 (RXF 393): 53.6 µM (inactive) | GI50 (OVCAR-3): 24.5 µM (inactive) | GI50 (SNB-75): 14.6 µM (inactive) | GI50 (TK-10): 59.6 µM (inactive) | GI50 (786-0): 25.9 µM (inactive) | GI50 (OVCAR-8): 27.7 µM (inactive) | GI50 (SK-MEL-28): 47.2 µM (inactive) | GI50 (LOX IMVI): 22.8 µM (inactive) | GI50 (HT-29): 27.6 µM (inactive) | GI50 (UACC-62): 38 µM (inactive) | GI50 (HOP-92): 48.5 µM (inactive) | GI50 (SNB-19): > 57.3 µM (inactive) | GI50 (UACC-257): > 71.6 µM (inactive) | GI50 (MDA-N): 47.2 µM (inactive) | GI50 (MDA-MB-231): 88.1 µM (inactive) | GI50 (CAKI-1): 33.2 µM (inactive) | GI50 (U-251): 52.7 µM (inactive) | GI50 (IGROV-1): 10.5 µM (inactive) | GI50 (SN12C): 33.7 µM (inactive) | GI50 (UO-31): 33.8 µM (inactive) | GI50 (SK-MEL-5): 53.8 µM (inactive) | GI50 (NCI-H23): 29.7 µM (inactive) | GI50 (M14): 35.5 µM (inactive) | GI50 (MCF7): 35.2 µM (inactive) | GI50 (COLO 205): 36.8 µM (inactive) | GI50 (MOLT-4): 33.3 µM (inactive) | GI50 (HCC 2998): 32.1 µM (inactive) | GI50 (HCT-15): 25.5 µM | GI50 (HOP-62): 22.9 µM (inactive) | GI50 (PC-3): 49 µM (inactive) | GI50 (SF-268): 43.2 µM (inactive) | GI50 (EKVX): 33.3 µM (inactive) | GI50 (CCRF-CEM): 30.3 µM (inactive) | GI50 (NCI-H522): 15.4 µM (inactive) | GI50 (ACHN): 37.5 µM (inactive) | GI50 (NCI-H460): 34.2 µM (inactive) | GI50 (SW-620): 37.2 µM (inactive) | GI50 (T47D): 44.2 µM (inactive) | GI50 (SF-295): > 67.5 µM (inactive) | GI50 (HCT-116): 29.9 µM (inactive) | GI50 (Hs-578T): 36 µM (inactive) | GI50 (SR): 22.1 µM (inactive) | GI50 (OVCAR-5): > 85.7 µM (inactive) | GI50 (SK-MEL-2): > 100 µM (inactive) | GI50 (NCI-H226): 23 µM (inactive) | GI50 (NCI/ADR-RES): 35.2 µM (inactive) | GI50 (BT-549): 21.4 µM (inactive) | GI50 (DU-145): 39.2 µM (inactive) | GI50 (MDA-MB-435): 39.1 µM (inactive) | GI50 (K562): 16.8 µM (inactive) | GI50 (Malme-3M): 43.3 µM (inactive) | GI50 (KM12): > 74 µM (inactive) | GI50 (SF-539): 23.8 µM (inactive) | GI50 (A498): 22.4 µM (inactive) | GI50 (RPMI-8226): 21 µM (inactive) | GI50 (SK-OV-3): > 100 µM (inactive)

From ChEMBL document CHEMBL1201862, “PubChem BioAssay data set” (2004)
